Assay results reported in the NIST ThermoML archive (doi:10.1021/acs.jced.5b00654).
Where “and” joins values, the source holds several entries; their conditions need not be identical. Equal values may be shown once. ± gives the expanded uncertainty stated by the source.

Conditions: Fluid (supercritical or subcritical phases); for viscosity: Vibrating wire viscometry; for mass density: Buoyancy - hydrostatic balance with magnetic suspension - one sinker

CCCC [butane]
Conditions	mass density	viscosity
428.09 K, 5150.2 kPa	–	0.04428 ± 0.0011 mPa·s
428.1 K, 796.14 kPa	14.038 ± 0.036 kg/m3	0.01066 ± 0.00086 mPa·s
428.1 K, 796.19 kPa	14.041 ± 0.036 kg/m3	0.01066 ± 0.00086 mPa·s
428.1 K, 904.9 kPa	16.138 ± 0.04 kg/m3	0.01069 ± 0.00086 mPa·s
428.1 K, 1964.1 kPa	40.163 ± 0.095 kg/m3	0.01117 ± 0.00086 mPa·s
428.1 K, 4625.9 kPa	341.66 ± 0.98 kg/m3	0.04038 ± 0.0011 mPa·s
428.11 K, 131.61 kPa	2.1741 ± 0.017 kg/m3	0.01052 ± 0.00086 mPa·s
428.11 K, 131.64 kPa	2.1741 ± 0.017 kg/m3	0.01052 ± 0.00086 mPa·s
428.11 K, 904.86 kPa	16.141 ± 0.04 kg/m3	0.01069 ± 0.00086 mPa·s
428.11 K, 1964.3 kPa	40.167 ± 0.095 kg/m3	0.01118 ± 0.00086 mPa·s
428.11 K, 4626.6 kPa	341.66 ± 0.98 kg/m3	0.04035 ± 0.0011 mPa·s
428.11 K, 4626.8 kPa	341.65 ± 0.98 kg/m3	0.04033 ± 0.0011 mPa·s
428.12 K, 685.03 kPa	11.939 ± 0.032 kg/m3	0.01063 ± 0.00086 mPa·s
428.12 K, 2306.2 kPa	49.889 ± 0.12 kg/m3 and 49.887 ± 0.12 kg/m3	0.01144 ± 0.00086 mPa·s
428.12 K, 3964.9 kPa	218.37 ± 5.8 kg/m3	0.02262 ± 0.00098 mPa·s
428.12 K, 3984.8 kPa	246.5 ± 4.9 kg/m3	0.02576 ± 0.001 mPa·s
428.12 K, 3984.9 kPa	246.49 ± 4.9 kg/m3	0.02577 ± 0.001 mPa·s
428.13 K, 480.91 kPa	8.2126 ± 0.026 kg/m3	0.01059 ± 0.00086 mPa·s
428.13 K, 578.67 kPa	9.9774 ± 0.029 kg/m3	0.01061 ± 0.00086 mPa·s
428.13 K, 684.54 kPa	11.929 ± 0.032 kg/m3	0.01063 ± 0.00086 mPa·s
428.13 K, 2624.6 kPa	60.353 ± 0.16 kg/m3	0.01177 ± 0.00087 mPa·s
428.13 K, 2624.7 kPa	60.36 ± 0.16 kg/m3	0.01177 ± 0.00087 mPa·s
428.13 K, 2862.9 kPa	69.476 ± 0.2 kg/m3	0.01209 ± 0.00087 mPa·s
428.13 K, 3655.2 kPa	119.22 ± 0.59 kg/m3	0.01443 ± 0.00089 mPa·s
428.13 K, 3964.8 kPa	218.33 ± 5.8 kg/m3	0.02263 ± 0.00098 mPa·s
428.13 K, 3990.1 kPa	251.58 ± 5 kg/m3 and 251.63 ± 5 kg/m3	0.02637 ± 0.001 mPa·s and 0.02638 ± 0.001 mPa·s
428.13 K, 5948.9 kPa	378 ± 0.56 kg/m3	0.04846 ± 0.0012 mPa·s
428.13 K, 5949.6 kPa	378.01 ± 0.56 kg/m3 and 378.02 ± 0.56 kg/m3	0.04837 ± 0.0012 mPa·s and 0.04844 ± 0.0012 mPa·s
428.14 K, 480.81 kPa	8.2112 ± 0.026 kg/m3	0.01059 ± 0.00086 mPa·s
428.14 K, 578.76 kPa	9.9803 ± 0.029 kg/m3	0.01061 ± 0.00086 mPa·s
428.14 K, 1041.2 kPa	18.856 ± 0.046 kg/m3	0.01073 ± 0.00086 mPa·s
428.14 K, 2862.8 kPa	69.471 ± 0.2 kg/m3	0.01209 ± 0.00087 mPa·s
428.14 K, 3427.1 kPa	99.322 ± 0.39 kg/m3	0.01338 ± 0.00088 mPa·s
428.14 K, 3655.7 kPa	119.23 ± 0.59 kg/m3	0.01444 ± 0.00089 mPa·s
428.14 K, 4145.9 kPa	304.6 ± 1.3 kg/m3	0.03374 ± 0.001 mPa·s
428.14 K, 4146.2 kPa	304.61 ± 1.3 kg/m3	0.03373 ± 0.001 mPa·s
428.14 K, 30018 kPa	498.2 ± 0.56 kg/m3	0.09505 ± 0.0015 mPa·s
428.14 K, 30022 kPa	498.2 ± 0.56 kg/m3	0.09486 ± 0.0015 mPa·s
428.14 K, 30023 kPa	498.21 ± 0.56 kg/m3	0.09498 ± 0.0015 mPa·s
428.15 K, 1040.7 kPa	18.847 ± 0.045 kg/m3	0.01073 ± 0.00086 mPa·s
428.15 K, 3263.7 kPa	88.854 ± 0.31 kg/m3	0.01288 ± 0.00087 mPa·s
428.15 K, 3427.2 kPa	99.316 ± 0.39 kg/m3	0.01337 ± 0.00088 mPa·s
428.15 K, 4067.3 kPa	289 ± 2.6 kg/m3	0.03129 ± 0.0011 mPa·s
428.15 K, 4067.5 kPa	288.98 ± 2.6 kg/m3	0.03132 ± 0.0011 mPa·s
428.15 K, 12773 kPa	440.28 ± 0.51 kg/m3	0.06754 ± 0.0013 mPa·s
428.15 K, 17075 kPa	460.12 ± 0.52 kg/m3	0.07551 ± 0.0014 mPa·s
428.15 K, 17077 kPa	460.12 ± 0.52 kg/m3	0.07561 ± 0.0014 mPa·s
428.16 K, 62.1 kPa	1.0176 ± 0.015 kg/m3	0.01051 ± 0.00086 mPa·s
428.16 K, 3263.8 kPa	88.856 ± 0.31 kg/m3	0.01289 ± 0.00087 mPa·s
428.16 K, 7467.1 kPa	399.68 ± 0.51 kg/m3	0.05418 ± 0.0012 mPa·s
428.16 K, 7467.5 kPa	399.69 ± 0.51 kg/m3	0.05413 ± 0.0012 mPa·s
428.16 K, 9661.1 kPa	420.21 ± 0.5 kg/m3	0.06045 ± 0.0012 mPa·s
428.16 K, 9662.3 kPa	420.22 ± 0.5 kg/m3	0.06047 ± 0.0012 mPa·s
428.16 K, 12732 kPa	440.05 ± 0.51 kg/m3	0.06741 ± 0.0013 mPa·s
428.16 K, 12735 kPa	440.06 ± 0.51 kg/m3	0.06744 ± 0.0013 mPa·s
428.17 K, 62.1 kPa	1.0183 ± 0.015 kg/m3	0.01051 ± 0.00086 mPa·s
428.17 K, 3976.1 kPa	230.45 ± 5.9 kg/m3	0.02394 ± 0.001 mPa·s
428.17 K, 7466.2 kPa	399.67 ± 0.51 kg/m3	0.05411 ± 0.0012 mPa·s
428.18 K, 62.1 kPa	1.0176 ± 0.015 kg/m3	0.01051 ± 0.00086 mPa·s
428.18 K, 1098.5 kPa	20.025 ± 0.048 kg/m3	0.01075 ± 0.00086 mPa·s
428.18 K, 1099.1 kPa	20.038 ± 0.048 kg/m3	0.01075 ± 0.00086 mPa·s
428.18 K, 3790.9 kPa	137.62 ± 2.4 kg/m3	0.01558 ± 0.00091 mPa·s
428.18 K, 3953.3 kPa	199.18 ± 5.3 kg/m3	0.02063 ± 0.001 mPa·s
428.18 K, 3976.3 kPa	230.48 ± 5.9 kg/m3	0.02395 ± 0.001 mPa·s
428.18 K, 4312 kPa	322.22 ± 1.1 kg/m3	0.03673 ± 0.0011 mPa·s
428.18 K, 4312.4 kPa	322.24 ± 1.1 kg/m3 and 322.25 ± 1.1 kg/m3	0.03673 ± 0.0011 mPa·s and 0.03668 ± 0.0011 mPa·s
428.19 K, 3883.8 kPa	159.22 ± 2.4 kg/m3	0.01712 ± 0.00092 mPa·s
428.19 K, 3884.1 kPa	159.21 ± 2.4 kg/m3	0.01712 ± 0.00093 mPa·s
428.19 K, 3938.7 kPa	185.24 ± 3.7 kg/m3	0.01931 ± 0.00095 mPa·s
428.19 K, 3939.2 kPa	185.3 ± 3.7 kg/m3	0.01933 ± 0.00095 mPa·s
428.19 K, 3953.5 kPa	199.12 ± 5.3 kg/m3	0.02064 ± 0.001 mPa·s
